Data from patent publication US20230013669A1, “Antibacterial Treatment Using a Cannabinoid and an Active Agent” (priority 2019, published 2023).
“And” between values parts separate entries of the source, which are not always exact repeats. Equal entries are not always repeated. Where two headings read alike, the source gives them in different places.

Tests used:
[1] = tested on: Klebsiella pneumoniae ATCC 13883 (GN_003 / GN_004); assay: Synergy of cannabidiol with cell-wall disrupting agent (CBD MIC in combination, FICI); type: cell-based; conditions: for FICI: calculated using MIC of 256 μg/mL for cannabidiol; for MIC: Klebsiella pneumoniae
Procedure: (§1) The compounds were stored short term at 4° C.
(§2) Analysis was performed using Microsoft Excel.

[2] = tested on: Pseudomonas aeruginosa FADDI-PA067 (GN_177), Polymyxin resistant; assay: as above; type: cell-based; conditions: for MIC: Pseudomonas aeruginosa
Procedure: as §1, §2

Question: With `C=C(C)C1CCC(C)=CC1c1c(O)cc(CCCCC)cc1O` (stereo not drawn) [Cannabidiol, 2-[3-methyl-6-(1-methylethenyl)-2-cyclohexen-1-yl]-5-pentyl-1,3-benzenediol] as the compound, how does the “CBD MIC with Ceftazidime” value ([1]; Ceftazidime at 16 μg/mL (Table 66), Klebsiella pneumoniae ATCC 700603) read?
Answer: >32 µg/mL

Question: And the “CBD MIC with Ceftazidime” value ([1]; Ceftazidime at 32 μg/mL (Table 66), Klebsiella pneumoniae ATCC 700603)?
Answer: >32 µg/mL

Question: What about the “CBD MIC with Ceftazidime” value ([1]; Ceftazidime at 64 μg/mL (Table 66), Klebsiella pneumoniae ATCC 700603) of the same compound?
Answer: 0.001 µg/mL

Question: What about the “CBD MIC with Ceftazidime” value ([1]; Ceftazidime at 128 μg/mL (Table 66), Klebsiella pneumoniae ATCC 700603) of the same compound?
Answer: 0.001 µg/mL

Question: What about the “CBD MIC with Cefuroxime” value ([1]; Cefuroxime at 32 μg/mL, Klebsiella pneumoniae ATCC 700603) of the same compound?
Answer: 0.001 µg/mL

Question: What about the “CBD MIC with Colistin” value ([1]; Colistin at 0.5 μg/mL, Klebsiella pneumoniae ATCC 700603) of the same compound?
Answer: 0.001 µg/mL

Question: What about the “CBD MIC with Colistin” value ([1]; Colistin at 1 μg/mL, Klebsiella pneumoniae ATCC 700603) of the same compound?
Answer: 0.001 µg/mL

Question: What about the “activity of cannabidiol combined with octapeptin MCC_006442” value ([1]; Example 4) of the same compound?
Answer: effective

Question: And the “activity of cannabidiol in combination with octapeptin MCC_006442” value ([1]; Example 7)?
Answer: effective

Question: What about the “activity of cannabidiol combined with cefuroxime” value ([1]; Example 12) of the same compound?
Answer: effective

Question: What about the “activity of cannabidiol combined with colistin” value ([1]; Example 14) of the same compound?
Answer: effective

Question: And the “activity of cannabidiol combined with octapeptin MCC_006442” value ([1]; Example 15)?
Answer: effective

Question: What about the “activity of cannabidiol combined with ceftazidime” value ([1]; Example 16) of the same compound?
Answer: effective

Question: What about the “activity of cannabidiol combined with cefotetan” value ([1]; Example 17) of the same compound?
Answer: effective

Question: What about the “activity of cannabidiol combined with aztreonam” value ([1]; Example 18) of the same compound?
Answer: effective

Question: What about the “activity of cannabidiol combined with octapeptin C4” value ([1]; Example 21) of the same compound?
Answer: effective

Question: What about the “activity of cannabidiol in combination with Spero Potentiator SPR741” value ([1]; Example 22) of the same compound?
Answer: effective

Question: What about the “activity of cannabidiol in combination with octapeptin FADDI-287” value ([1]; Example 23) of the same compound?
Answer: effective

Question: What about the “activity of cannabidiol in combination with MCC_8980” value ([1]; Example 24) of the same compound?
Answer: effective

Question: And the FICI range ([1]; Klebsiella pneumoniae ATCC 700603 (so in the source), CBD with FADDI-287, MIC table (Table 95))?
Answer: 0.16-4

Question: And the FICI range ([1]; Klebsiella pneumoniae ATCC 700603 (so in the source), CBD with FADDI-287, Synergy table (Table 97))?
Answer: 0.16-0.5

Question: And the FICI range ([1]; Klebsiella pneumoniae ATCC 700603 (so in the source), CBD with MCC_8980, MIC table (Table 99), listed as CBD)?
Answer: 0.31-1.13 and 0.38-1.13

Question: What about the FICI range ([1]; Klebsiella pneumoniae ATCC 700603 (so in the source), CBD with MCC_8980, Synergy table (Table 101), listed as CBD) of the same compound?
Answer: 0.31 and 0.38

Question: What about the FICI range ([1]; Klebsiella pneumoniae ATCC 700603 (so in the source), CBD with Spero Potentiator SPR741, MIC table (Table 91), listed as CBD) of the same compound?
Answer: 0.08-1.03 and 0.09-1.03 and 0.16-1.06 and 0.14-1.06

Question: What about the FICI range ([1]; Klebsiella pneumoniae ATCC 700603 (so in the source), CBD with Spero Potentiator SPR741, Synergy table (Table 93), listed as CBD) of the same compound?
Answer: 0.08-0.27 and 0.09-0.27 and 0.16-0.27 and 0.14-0.26

Question: And the “CBD MIC with MCC_8980” value ([1]; Klebsiella pneumoniae ATCC 700603 (so in the source), MCC_8980 at 16 μg/mL, listed as CBD)?
Answer: 32 µg/mL

Question: What about the “CBD MIC with Spero Potentiator SPR741” value ([1]; Klebsiella pneumoniae ATCC 700603 (so in the source), SPR741 at 8 μg/mL, listed as CBD) of the same compound?
Answer: 4 µg/mL and 8 µg/mL

Question: And the FICI ([1]; Klebsiella pneumoniae ATCC 700603 (so in the source), cannabidiol with FADDI-287 at 0.25 μg/mL)?
Answer: 0.2539

Question: And the FICI ([1]; Klebsiella pneumoniae ATCC 700603 (so in the source), cannabidiol with FADDI-287 at 0.5 μg/mL)?
Answer: 0.5

Question: And the FICI ([1]; Klebsiella pneumoniae ATCC 700603 (so in the source), cannabidiol with FADDI-287 at 1 μg/mL)?
Answer: 1

Question: What about the FICI ([1]; Klebsiella pneumoniae ATCC 700603 (so in the source), cannabidiol with FADDI-287 at 2 μg/mL) of the same compound?
Answer: 2

Question: And the FICI ([1]; Klebsiella pneumoniae ATCC 700603 (so in the source), cannabidiol with FADDI-287 at 4 μg/mL)?
Answer: 4

Question: What about the FICI ([1]; Klebsiella pneumoniae ATCC 700603 (so in the source), cannabidiol with MCC_8980 at 1 μg/mL) of the same compound?
Answer: 1.016

Question: And the FICI ([1]; Klebsiella pneumoniae ATCC 700603 (so in the source), cannabidiol with MCC_8980 at 2 μg/mL)?
Answer: 1.031

Question: And the FICI ([1]; Klebsiella pneumoniae ATCC 700603 (so in the source), cannabidiol with MCC_8980 at 4 μg/mL)?
Answer: 1.0625

Question: What about the FICI ([1]; Klebsiella pneumoniae ATCC 700603 (so in the source), cannabidiol with MCC_8980 at 8 μg/mL) of the same compound?
Answer: 1.125

Question: And the FICI ([1]; Klebsiella pneumoniae ATCC 700603 (so in the source), cannabidiol with MCC_8980 at 16 μg/mL)?
Answer: 0.375 and 0.3125

Question: What about the FICI ([1]; Klebsiella pneumoniae ATCC 700603 (so in the source), cannabidiol with SPR741 at 0.5 μg/mL) of the same compound?
Answer: 1.004

Question: And the FICI ([1]; Klebsiella pneumoniae ATCC 700603 (so in the source), cannabidiol with SPR741 at 1 μg/mL)?
Answer: 1.016

Question: What about the FICI ([1]; Klebsiella pneumoniae ATCC 700603 (so in the source), cannabidiol with SPR741 at 2 μg/mL) of the same compound?
Answer: 1.031

Question: And the FICI ([1]; Klebsiella pneumoniae ATCC 700603 (so in the source), cannabidiol with SPR741 at 2 μg/mL, listed as cannabidiol)?
Answer: 1.016

Question: And the FICI ([1]; Klebsiella pneumoniae ATCC 700603 (so in the source), cannabidiol with SPR741 at 4 μg/mL)?
Answer: 1.031 and 1.0625

Question: What about the FICI ([1]; Klebsiella pneumoniae ATCC 700603 (so in the source), cannabidiol with SPR741 at 8 μg/mL) of the same compound?
Answer: 0.09375 and 0.1406 and 0.07812

Question: And the MIC ([1]; ATCC13883, read-out: CBD MIC with octapeptin MCC_006442 at concentration 2 μg/mL, Example 4, GN_003)?
Answer: 1 µg/mL

Question: What about the MIC ([1]; ATCC13883, read-out: CBD MIC with octapeptin MCC_006442 at concentration 4 μg/mL, Example 4, GN_003) of the same compound?
Answer: 0.25 µg/mL

Question: And the MIC ([1]; ATCC 13883 / ATCC 700603, Klebsiella pneumoniae ATCC 700603 (so in the source), FADDI-287 at 0.25 μg/mL, read-out: CBD MIC with FADDI-287)?
Answer: 1 µg/mL

Question: And the MIC ([1]; ATCC 13883 / ATCC 700603, Klebsiella pneumoniae ATCC 700603 (so in the source), FADDI-287 at 0.5 μg/mL, read-out: CBD MIC with FADDI-287)?
Answer: 0.001 µg/mL

Question: What about the MIC ([1]; ATCC 13883 / ATCC 700603, Klebsiella pneumoniae ATCC 700603 (so in the source), FADDI-287 at 1 μg/mL, read-out: CBD MIC with FADDI-287) of the same compound?
Answer: 0.001 µg/mL

Question: And the MIC ([1]; ATCC 13883 / ATCC 700603, Klebsiella pneumoniae ATCC 700603 (so in the source), FADDI-287 at 2 μg/mL, read-out: CBD MIC with FADDI-287)?
Answer: 0.001 µg/mL

Question: And the MIC ([1]; ATCC 13883 / ATCC 700603, Klebsiella pneumoniae ATCC 700603 (so in the source), FADDI-287 at 4 μg/mL, read-out: CBD MIC with FADDI-287)?
Answer: 0.001 µg/mL

Question: And the MIC ([1]; ATCC 13883 / ATCC 700603, Klebsiella pneumoniae ATCC 700603 (so in the source), MCC_8980 at 16 μg/mL, read-out: CBD MIC with MCC_8980)?
Answer: 16 µg/mL

Question: And the MIC ([1]; ATCC 13883 / ATCC 700603, Klebsiella pneumoniae ATCC 700603 (so in the source), Spero SPR206 at 0.007 μg/mL, read-out: CBD MIC with Spero SPR206)?
Answer: ≥ 32 µg/mL

Question: And the MIC ([1]; ATCC 13883 / ATCC 700603, Klebsiella pneumoniae ATCC 700603 (so in the source), Spero SPR206 at 0.015 μg/mL, read-out: CBD MIC with Spero SPR206)?
Answer: ≥ 32 µg/mL

Question: And the MIC ([1]; ATCC 13883 / ATCC 700603, Klebsiella pneumoniae ATCC 700603 (so in the source), Spero SPR206 at 0.031 μg/mL, read-out: CBD MIC with Spero SPR206)?
Answer: ≥ 32 µg/mL

Question: What about the MIC ([1]; ATCC 13883 / ATCC 700603, Klebsiella pneumoniae ATCC 700603 (so in the source), Spero SPR206 at 0.062 μg/mL, read-out: CBD MIC with Spero SPR206) of the same compound?
Answer: ≥ 32 µg/mL

Question: And the MIC ([1]; ATCC 13883 / ATCC 700603, Klebsiella pneumoniae ATCC 700603 (so in the source), Spero SPR206 at 4 μg/mL, read-out: CBD MIC with Spero SPR206)?
Answer: 0.001 µg/mL

Question: What about the MIC ([1]; ATCC 13883 / ATCC 700603, MCC_6442 at 2 μg/mL, Klebsiella pneumoniae ATCC 700603, read-out: CBD MIC with MCC_6442) of the same compound?
Answer: 1 µg/mL

Question: And the MIC ([1]; ATCC 13883 / ATCC 700603, MCC_6442 at 4 μg/mL, Klebsiella pneumoniae ATCC 700603, read-out: CBD MIC with MCC_6442)?
Answer: 0.25 µg/mL

Question: What about the MIC ([1]; ATCC13883 / ATCC700603, read-out: CBD MIC with FADDI-287, Klebsiella pneumoniae ATCC 700603 (so in the source), FADDI-287 at […]) of the same compound?
Answer: 8 µg/mL

Question: What about the “cannabidiol combined with Polymyxin B: synergy” value ([2]; Example 8) of the same compound?
Answer: synergy

Question: What about the MIC ([2]; read-out: CBD MIC with MCC_00636 at concentration 0.015625 μg/mL) of the same compound?
Answer: > 256 µg/mL

Question: And the MIC ([2]; read-out: CBD MIC with MCC_00636 at concentration 0.03125 μg/mL)?
Answer: > 256 µg/mL

Question: And the MIC ([2]; read-out: CBD MIC with MCC_00636 at concentration 0.0625 μg/mL)?
Answer: > 256 µg/mL

Question: And the MIC ([2]; read-out: CBD MIC with MCC_00636 at concentration 0.25 μg/mL)?
Answer: > 256 µg/mL

Question: And the MIC ([2]; read-out: CBD MIC with MCC_00636 at concentration 0.5 μg/mL)?
Answer: 4 µg/mL

Question: What about the MIC ([2]; read-out: CBD MIC with MCC_00636 at concentration 1 μg/mL) of the same compound?
Answer: 0.5 µg/mL

Question: And the MIC ([2]; read-out: CBD MIC with MCC_00636 at concentration 2 μg/mL)?
Answer: 0.000977 µg/mL

Question: And the MIC ([2]; read-out: CBD MIC with MCC_00636 at concentration 4 μg/mL)?
Answer: 0.000977 µg/mL

Question: And the MIC ([2]; read-out: CBD MIC with MCC_00636 at concentration […])?
Answer: > 256 µg/mL
